Legend:
[1] = Osmolality of aqueous solutions containing 28% iodine; type: physicochemical; conditions: aqueous solution
mice = assay: LD50, I.V., in mice; type: in vivo; conditions: aqueous solution containing 28% iodine
[2] = Neurotoxicity, intra-cisternal injection in rats (technique according to E. Melartin); conditions: in vivo, at 50 mg I/rat, read-out: Neurotoxicity: death rate, intra-cisternal injection in rats
Text: *Technique according to E. Melartin (Investigative Radiology, 1970, 5, 1,

[3] = Neurotoxicity, intra-cerebral injection in mice (technique according to Haley and MacCornick); conditions: mouse, in vivo, 700 mg/kg, at 700 mg I/kg, read-out: Neurotoxicity: death rate, intra-cerebral injection in mice
Text: **Technique according to Haley and MacCornick (British Journal

[4] = Viscosity of aqueous solution; type: physicochemical; conditions: 25 g iodine per 100 ml, 37° C
Experimental: The product is dissolved in water at a concentration of 25 g iodine per 100 ml. The solution has a viscosity of 7.4 centipoises at 37° C.

Row | SMILES | Osmolality [1] [mosm/kg] | LD50, I.V., in mice (mice) [g I/kg] | mortality [2] [%] | mortality [3] [%] | viscosity [4] [centipoises]
1 | CC(=O)N(C)c1c(I)c(NC(=O)[C@H](O)[C@@H](O)[C@H](O)[C@H](O)CO)c(I)c(C(=O)N(C)N(C)C(=O)c2c(I)c(NC(=O)[C@H](O)[C@@H](O)[C@H](O)[C@H](O)CO)c(I)c(N(C)C(C)=O)c2I)c1I [III, N,N'-bis(2,4,6-triiodo-3-N-methyl-N-acetylamino-5-N-gluconylamino-benzoyl)dimethyl hydrazide] | 140 | 9 |  |  | 
2 | CC(=O)N(C)c1c(I)c(NC(=O)[C@H](O)[C@@H](O)[C@H](O)[C@H](O)CO)c(I)c(C(=O)NNC(=O)c2c(I)c(NC(=O)[C@H](O)[C@@H](O)[C@H](O)[C@H](O)CO)c(I)c(N(C)C(C)=O)c2I)c1I [II, N,N'-bis(2,4,6-triiodo-3-N-methyl-N-acetylamino-5-N-gluconylamino-benzoyl)hydrazide] | 204 | 6 |  |  | 
3 | CC(=O)N(C)c1c(I)c(NC(=O)[C@H](O)[C@@H](O)[C@H](O)[C@H](O)CO)c(I)c(C(=O)NCCNC(=O)c2c(I)c(NC(=O)[C@H](O)[C@@H](O)[C@H](O)[C@H](O)CO)c(I)c(N(C)C(C)=O)c2I)c1I [I, 1,2-N,N'-bis(2,4,6-triiodo-3-N-methyl-N-acetylamino-5-N-gluconylamino-benzoyl)-diamino-ethane] | 200 | 15 | 0 | 0 | 7.4

Reference: US4062934A, “X-ray contrast media” (Laboratoires Andre Guerbet, priority 1975, dated 1977)
